Test results: patent publication US4137318A, “N-(phenylalkylamino-alkyl)-dihydroisoquinolinones, pharmaceutical compositions and methods employing them” (Boehringer Ingelheim GmbH, priority 1976, dated 1979)

Assays:
[1] = LD50 in mice, i.v., observation time of 14 days; details: mouse, in vivo, iv, observation time of 14 days
Description: Additionally, it should be noted that at all dosage levels the test compounds were tolerated very well and produced no toxic side-effects.

[2] = tested on: heart rate; experiment: Bradycardiac test: effect of test compound on the heart rate of anesthetized cats; format: in vivo
Protocol: The effect of the test compound on the heart rate was tested at various dosage levels on 2-4 cats of both sexes per dose. The average body weight of the cats was 2.5-3.5 kg. For this purpose the animals were anesthetized with nembutal (30 mgm/kg i.p.) and chloralose-urethane (40 mgm/ml chloralose + 200 mgm/ml urethane as required). The test compound in aqueous solution was injected into the Vena saphena (i.v.) or duodenum (i.p.).
The heart rate was registered before and after administration of the test compound on a Grass-polygraph by means of a Grass-tachograph from the electrocardiogram (precordial lead).

Row | SMILES | LD50 at 336 h [1] [mg/kg] | Duration of effective action ([2]; 0.1 mgm/kg i.v.) [min] | Duration of effective action ([2]; 0.3 mgm/kg i.v.) [min] | Duration of effective action ([2]; 1.0 mgm/kg i.v.) [min] | Duration of effective action ([2]; 3.0 mgm/kg i.d.) [min] | Duration of effective action ([2]; 10.0 mgm/kg i.v.) [min] | Duration of effective action ([2]; 30.0 mgm/kg i.d.) [min] | Duration of effective action ([2]; 2.0 mgm/kg i.v.) [min] | Duration of effective action ([2]; 3.0 mgm/kg i.v.) [min]
1 | COc1ccc(CCN(C)CCCN2CCc3cc(OC)c(OC)cc3C2=O)cc1OC.Cl [A, 1-[6,7-dimethoxy-3,4-dihydro-2H-isoquinolin-1-one-2-yl]-3-[N-methyl-N-(2-(3,4-dimethoxy-phenyl)-ethyl)-amino] propane hydrochloride] | 53 | 30 | 30 | 50 | 60 | 70 | 60 |  | 
2 | COc1ccc(CCNCCCN2CCc3cc(OC)c(OC)cc3C2=O)cc1OC.Cl [B, 1-[6,7-dimethoxy-3,4-dihydro-2H-isoquinolin-1-one-2-yl]-3-[N-(2-(3,4-dimethoxy-phenyl)-ethyl)-amino] propane hydrochloride] |  |  | 22 | 17 |  |  |  | 43 | 
3 | COc1ccc(CCN(C)CCCN2CC(C)(C)c3cc(OC)c(OC)cc3C2=O)cc1OC.Cl [C, 1-[4,4-dimethyl-6,7-dimethoxy-3,4-dihydro-2H-isoquinolin-1-one-2-yl]-3-[N-methyl-N-(2-(3,4-dimethoxy-phenyl)-ethyl)-amino]-propane hydrochloride] |  |  | 8 | 11 |  |  |  |  | 18
4 | COc1ccc(CCNCCCN2CC(C)(C)c3cc(OC)c(OC)cc3C2=O)cc1OC.Cl [D, 1-[4,4-dimethyl-6,7-dimethoxy-3,4-dihydro-2H-isoquinolin-1-one-2-yl]-3-[N-(2-(3,4-dimethoxy-phenyl)-ethyl)-amino]-propane hydrochloride] |  |  |  | 6 |  |  |  |  | 16
5 | COc1ccc(CCN(C)CCCN2CCCc3cc(OC)c(OC)cc3C2=O)cc1OC.Cl [E, 1-[7,8-dimethoxy-1,2,3,4-tetrahydro-5H-2-benzazepin-1-one-2-yl]-3-[N-methyl-N-(2-(3,4-dimethoxy-phenyl)-ethyl)-amino]-propane hydrochloride] |  |  |  | 30 |  |  |  | 20 | 
